Reference: publication PMC467104, “Novel NO-TZDs and trimethoxychalcone-based DHPMs: design, synthesis, and biological evaluation as potential VEGFR-2 inhibitors” (Journal of Enzyme Inhibition and Medicinal Chemistry, 2024)
pIC50: −log10 of the molar value.

Target: T1, VEGFR-2 (Homo sapiens, UniProt P35968)
T1 construct: gene KDR
Test: BPS Bioscience KDR kinase assay (Kinase-Glo Max/ADP-Glo luminescence)
Format: biochemical

T1 sequence (P35968 20-1356): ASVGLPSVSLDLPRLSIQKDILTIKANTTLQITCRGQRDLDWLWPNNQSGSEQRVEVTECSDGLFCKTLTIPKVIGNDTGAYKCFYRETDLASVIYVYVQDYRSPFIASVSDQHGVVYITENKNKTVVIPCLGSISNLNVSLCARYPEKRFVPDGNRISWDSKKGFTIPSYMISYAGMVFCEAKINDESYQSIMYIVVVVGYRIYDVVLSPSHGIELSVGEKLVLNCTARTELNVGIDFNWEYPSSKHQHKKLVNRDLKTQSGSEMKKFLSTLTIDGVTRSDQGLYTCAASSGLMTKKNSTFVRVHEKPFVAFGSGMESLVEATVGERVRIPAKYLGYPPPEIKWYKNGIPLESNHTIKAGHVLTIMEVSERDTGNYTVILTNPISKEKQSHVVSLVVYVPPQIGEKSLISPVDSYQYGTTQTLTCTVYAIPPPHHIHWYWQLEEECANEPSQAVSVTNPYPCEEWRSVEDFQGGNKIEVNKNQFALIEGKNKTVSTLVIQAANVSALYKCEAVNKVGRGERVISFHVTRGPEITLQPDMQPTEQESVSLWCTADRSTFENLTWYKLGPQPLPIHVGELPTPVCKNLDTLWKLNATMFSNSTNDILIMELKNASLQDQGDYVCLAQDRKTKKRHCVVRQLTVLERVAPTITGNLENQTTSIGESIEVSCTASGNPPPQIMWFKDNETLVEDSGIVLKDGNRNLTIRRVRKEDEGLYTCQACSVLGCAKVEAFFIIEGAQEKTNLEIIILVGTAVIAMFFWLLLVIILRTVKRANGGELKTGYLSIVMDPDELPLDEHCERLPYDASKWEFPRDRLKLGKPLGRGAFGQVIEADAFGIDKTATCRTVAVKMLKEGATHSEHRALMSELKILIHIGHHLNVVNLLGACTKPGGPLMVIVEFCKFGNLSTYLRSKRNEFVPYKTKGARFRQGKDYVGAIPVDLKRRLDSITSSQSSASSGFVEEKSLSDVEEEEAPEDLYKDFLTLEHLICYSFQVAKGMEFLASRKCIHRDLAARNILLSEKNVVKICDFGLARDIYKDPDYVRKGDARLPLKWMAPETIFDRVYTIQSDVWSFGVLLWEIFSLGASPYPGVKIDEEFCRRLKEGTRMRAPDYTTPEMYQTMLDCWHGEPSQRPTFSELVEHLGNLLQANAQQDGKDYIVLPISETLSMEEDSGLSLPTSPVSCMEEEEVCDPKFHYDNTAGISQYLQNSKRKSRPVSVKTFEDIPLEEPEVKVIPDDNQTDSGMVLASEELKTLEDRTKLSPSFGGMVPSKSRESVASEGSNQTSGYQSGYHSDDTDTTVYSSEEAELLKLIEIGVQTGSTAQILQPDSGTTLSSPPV

pIC50: 6.95
Structure (SMILES): CCOC(=O)C1=C(C)NC(SCC(=O)Nc2ccc(C(=O)/C=C/c3cc(OC)c(OC)c(OC)c3)cc2)=N[C@@H]1c1ccc(O)c(OC)c1 [CDHPM-10e, Ethyl (R,E)-4–(4-hydroxy-3-methoxyphenyl)-6-methyl-2-((2-oxo-2-((4–(3-(3,4,5-trimethoxyphenyl)acryloyl)phenyl)amino)ethyl)thio)-1,4-dihydropyrimidine-5-carboxylate]
